Test results as given in patent publication US10905781B2, “Reporter platform for real time monitoring of drug efficacy” (THE BRIGHAM AND WOMEN'S HOSPITAL, INC., priority 2016, dated 2021).
Ends that are not written are not given here.

Test system: effector caspases (caspase-3 and caspase-7) compared with initiator caspases (caspase-6 and caspase-9)
Assay: Activation of the NIR FRET reporter element by caspases
Type: biochemical
Details: caspase-3 and caspase-7 compared with caspase-6 and caspase-9
Protocol: FIG. 15A is a graph showing the time-dependent activation of the reporter element (with the NIR FRET pair) in the presence of caspase-3. Reporter element (50 μM) was incubated in the presence of 50 U caspase-3 enzyme at 37° C., which results in the cleavage of the DEVD sequence and removing the quenching effect of Dylight 766Q on the fluorophore Dylight 755. The increase in fluorescence over time was monitored.

Substance: reporter element: caspase-3 cleavable sequence GKDEVDAPC-CONH2 to which a NIR FRET-pair (Dylight 755 / Dylight 766Q) is conjugated (GKDEVDAPC-NH2; also: Dylight 755 / Dylight 766Q FRET pair conjugated)
- activation of the NIR-based fluorophore by effector versus initiator caspases: selective activation
